Reference: patent publication US12077483B2, “Modified amine lipids” (Intellia Therapeutics, Inc., priority 2018, dated 2024)
Where “and” joins values, the source holds several entries; their conditions need not be identical. Equal values may be shown once.

Assays:
[1] = pKa of amine lipid by TNS fluorescence; assay type: physicochemical; details: probe TNS (6-(p-toluidino)-2-naphthalenesulfonic acid sodium salt), unformulated amine lipid in ethanol, sodium phosphate buffers -9.0
Procedure: The pKa of each amine lipid was determined according to the method in Jayaraman, et al. (Angewandte Chemie, 2012) with the following adaptations. The pKa was determined for unformulated amine lipid in ethanol. Lipid stock solutions (2.94 mM) were diluted into Sodium Phosphate Buffers (0.1 M, Boston Bioproducts) of different pH (pH-range: 4.5-9.0) yielding a final lipid concentration of approx. 100 μM. The test samples were supplemented with TNS {6-(p-Toluidino)-2-naphthalenesulfonic acid sodium salt}, incubated and the fluorescence intensity was measured using excitation and emission wavelengths of 321 nm and 448 nm, respectively. The recorded data were normalized and the respective pKa values were derived from sigmoidal fitting.

[2] = LNP average particle size and polydispersity by dynamic light scattering; assay type: physicochemical; details: LNP with the compound as amine lipid, composition ratio (mol %) 50/9/38/3 for Cmpnd 49, 50/10/38.5/1.5 for the others
Text: The LNPs have a size of about 1 to about 1,000 nm, about 10 to about 500 nm, about 20 to about 500 nm, in a sub-embodiment about 50 to about 400 nm, in a sub-embodiment about 50 to about 300 nm, in a sub-embodiment about 50 to about 200 nm, and in a sub-embodiment about 50 to about 150 nm, and in another sub-embodiment about 60 to about 120 nm. Preferably, the LNPs have a size from about 60 nm to about 100 nm. The average sizes (diameters) of the fully formed LNP, may be measured by dynamic light scattering on a Malvern Zetasizer. The LNP sample is diluted in phosphate buffered saline (PBS) so that the count rate is approximately 200-400 kcps. The data is presented as a weighted average of the intensity measure.
In some embodiments, the LNPs have a size of about 75 to about 120 nm. In some embodiments, the LNPs have a size of about 75 to about 100 nm. Unless indicated otherwise, all sizes referred to herein are the average sizes (diameters) of the fully formed nanoparticles, as measured by dynamic light scattering on a Malvern Zetasizer. The nanoparticle sample is diluted in phosphate buffered saline (PBS) so that the count rate is approximately 200-400 kcps. The data is presented as a weighted-average of the intensity measure (Z-average diameter).
Dynamic Light Scattering (“DLS”) is used to characterize the polydispersity index (“pdi”) and size of the LNPs of the present disclosure. DLS measures the scattering of light that results from subjecting a sample to a light source. PDI, as determined from DLS measurements, represents the distribution of particle size (around the mean particle size) in a population, with a perfectly uniform population having a PDI of zero. Electropheretic light scattering is used to characterize the surface charge of the LNP at a specified pH. The surface charge, or the zeta potential, is a measure of the magnitude of electrostatic repulsion/attraction between particles in the LNP suspension. Asymmetric-Flow Field Flow Fractionation—Multi-Angle Light Scattering (AF4-MALS) is used to separate particles in the composition by hydrodynamic radius and then measure the molecular weights, hydrodynamic radii and root mean square radii of the fractionated particles. […] Nanoparticle tracking analysis (NTA, Malvern Nanosight) can be used to determine particle size distribution as well as particle concentration. LNP samples are diluted appropriately and injected onto a microscope slide. A camera records the scattered light as the particles are slowly infused through field of view. After the movie is captured, the Nanoparticle Tracking Analysis processes the movie by tracking pixels and calculating a diffusion coefficient. This diffusion coefficient can be translated into the hydrodynamic radius of the particle. The instrument also counts the number of individual particles counted in the analysis to give particle concentration.
LNP compositions are analyzed for average particle size, polydispersity index (pdi), total RNA content, encapsulation efficiency of RNA, and zeta potential. LNP compositions may be further characterized by lipid analysis, AF4-MALS, NTA, and/or cryo-EM. Average particle size and polydispersity are measured by dynamic light scattering (DLS) using a Malvern Zetasizer DLS instrument. LNP samples were diluted with PBS buffer prior to being measured by DLS. Z-average diameter which is an intensity-based measurement of average particle size was reported along with number average diameter and pdi. A Malvern Zetasizer instrument is also used to measure the zeta potential of the LNP. Samples are diluted 1:17 (50 μL into 800 μL) in 0.1×PBS, pH 7.4 prior to measurement.

[3] = RNA encapsulation efficiency of LNP (Ribogreen fluorescence assay); assay type: physicochemical; details: LNP with the compound as amine lipid, composition ratio (mol %) 50/9/38/3 for Cmpnd 49, 50/10/38.5/1.5 for the others
Procedure: A fluorescence-based assay (Ribogreen®, ThermoFisher Scientific) is used to determine total RNA concentration and free RNA. Encapsulation efficiency is calculated as (Total RNA—Free RNA)/Total RNA. LNP samples are diluted appropriately with 1× TE buffer containing 0.2% Triton-X 100 to determine total RNA or 1× TE buffer to determine free RNA. Standard curves are prepared by utilizing the starting RNA solution used to make the compositions and diluted in 1× TE buffer+/−0.2% Triton-X 100. Diluted RiboGreen® dye (according to the manufacturer's instructions) is then added to each of the standards and samples and allowed to incubate for approximately 10 minutes at room temperature, in the absence of light. A SpectraMax M5 Microplate Reader (Molecular Devices) is used to read the samples with excitation, auto cutoff and emission wavelengths set to 488 nm, 515 nm, and 525 nm respectively. Total RNA and free RNA are determined from the appropriate standard curves.
Encapsulation efficiency is calculated as (Total RNA−Free RNA)/Total RNA. The same procedure may be used for determining the encapsulation efficiency of a DNA-based cargo component. For single-strand DNA, Oligreen Dye may be used and for double-strand DNA, Picogreen Dye.

[4] = tested on: mouse TTR; assay: Serum TTR ELISA in mice after LNP delivery; assay type: in vivo; details: mouse serum, relative to TSS control of same experiment
Procedure: For studies measuring in vivo editing in liver, CD-1 female mice were dosed at 0.1 mpk unless otherwise noted. Animals were euthanized at 6 or 7 days by exsanguinationvia cardiac puncture under isoflourane anesthesia. Liver tissue was collected from each animal for DNA extraction and analysis. Blood was collected into serum separator tubes or into tubes containing buffered sodium citrate for plasma as described herein. Cohorts of mice were measured for editing by Next-Generation Sequencing (NGS).
Blood was collected and the serum was isolated as indicated. The total mouse TTR serum levels were determined using a Mouse Prealbumin (Transthyretin) ELISA Kit (Aviva Systems Biology, Cat. OKIA00111). Briefly, sera were serial diluted with kit sample diluent, e.g. to a final dilution of 10,000-fold and/or 2,500-fold. The diluted sample was then added to the ELISA plates and the assay was then carried out according to directions. Serum TTR data from treatment groups are expressed as a percentage of vehicle control levels.

Structure (SMILES) | pKa [1] | Num Ave Size (nm) ([2]; Expt. 9) | PDI ([2]; Expt. 9) | Z-Ave Size (nm) ([2]; Expt. 9) | Encapsulation (%) ([3]; Expt. 9) | Serum TTR % TSS ([4]; dose 0.03 mpk) [% TSS] | Serum TTR % TSS ([4]; dose 0.1 mpk) [% TSS] | also measured
CCCCC/C=C\C/C=C\CCCCCCCC(=O)OCC(COC(=O)CCCCCCC/C=C\C/C=C\CCCCC)OC(=O)CCC(CC/C=C\CCCCC)OC(=O)NCCN(C)CC (stereo not drawn) [Compound 107, 2-(((Z)-4-(((2-(ethyl(methyl)amino)ethyl)carbamoyl)oxy)tridec-7-enoyl)oxy)propane-1,3-diyl (9Z,9′Z,12Z,12′Z)-bis(octadeca-9,12-dienoate)] | 6.35 | 72 | 0.03 | 89 | 98 | 58.53 |  | 
CCCCC/C=C\C/C=C\CCCCCCCC(=O)OCC(COC(=O)CCCCCCC/C=C\C/C=C\CCCCC)OC(=O)CCC(CCCCCCCCCC)OC(=O)NCC1CCCN1C (stereo not drawn) [Compound 65, 2-((4-((((1-methylpyrrolidin-2-yl)methyl)carbamoyl)oxy)tetradecanoyl)oxy)propane-1,3-diyl (9Z,9′Z,12Z,12′Z)-bis(octadeca-9,12-dienoate)] | 6.37 |  |  |  |  | 119.84 | 99.22 | Num Ave Size (nm) ([2]; Expt. 8): 52.04 nm; PDI ([2]; Expt. 8): 0.056; Z-Ave Size (nm) ([2]; Expt. 8): 69.67 nm; Encapsulation (%) ([3]; Expt. 8): 99%
CCCCC/C=C\C/C=C\CCCCCCCC(=O)OCC(COC(=O)CCCCCCC/C=C\C/C=C\CCCCC)OC(=O)CCC(CCCCCCCC)OC(=O)OCCCCN(CC)CC (stereo not drawn) [Compound 95, 2-((4-(((4-(diethylamino)butoxy)carbonyl)oxy)dodecanoyl)oxy)propane-1,3-diyl (9Z,9′Z,12Z,12′Z)-bis(octadeca-9,12-dienoate)] | 6.15 |  |  |  |  | 77 |  | Num Ave Size (nm) ([2]; Expt. 10): 88 nm; PDI ([2]; Expt. 10): 0.01; Z-Ave Size (nm) ([2]; Expt. 10): 105 nm; Encapsulation (%) ([3]; Expt. 10): 98%
CCCCC/C=C\C/C=C\CCCCCCCC(=O)OCC(COC(=O)CCCCCCC/C=C\C/C=C\CCCCC)COC(=O)CC(CCCCCCCC)OC(=O)NCCN(C)CC (stereo not drawn) [Compound 53, 2-(11-methyl-5-octyl-3,7-dioxo-2,6-dioxa-8,11-diazatridecyl)propane-1,3-diyl (9Z,9′Z,12Z,12′Z)-bis(octadeca-9,12-dienoate)] | 6.29 |  |  |  |  |  | 13.97 | Num Ave Size (nm) ([2]; Expt. 1): 75.76 nm; PDI ([2]; Expt. 1): 0.05; Z-Ave Size (nm) ([2]; Expt. 1): 92.99 nm; Encapsulation (%) ([3]; Expt. 1): 99%
CCCCC/C=C\C/C=C\CCCCCCCC(=O)OCC(COC(=O)CCCCCCC/C=C\C/C=C\CCCCC)OC(=O)CCC(CCCCC)OC(=O)NCCN(C)CC (stereo not drawn) [Compound 69, 2-((4-(((2-(ethyl(methyl)amino)ethyl)carbamoyl)oxy)nonanoyl)oxy)propane-1,3-diyl (9Z,9′Z,12Z,12′Z)-bis(octadeca-9,12-dienoate)] | 6.44 |  |  |  |  | 54 | 12 | Num Ave Size (nm) ([2]; Expt. 4): 88.76 nm; PDI ([2]; Expt. 4): 0.017; Z-Ave Size (nm) ([2]; Expt. 4): 108.90 nm; Encapsulation (%) ([3]; Expt. 4): 96%

Continued, in another order:

pKa [1] | Num Ave Size (nm) ([2]; Expt. 9) | PDI ([2]; Expt. 9) | Z-Ave Size (nm) ([2]; Expt. 9) | Encapsulation (%) ([3]; Expt. 9) | Structure (SMILES) | Serum TTR % TSS ([4]; dose 0.03 mpk) [% TSS] | Serum TTR % TSS ([4]; dose 0.1 mpk) [% TSS] | also measured
6.8 | 74 | 0.01 | 91 | 99 | CCCCC/C=C\C/C=C\CCCCCCCC(=O)OCC(COC(=O)CCCCCCC/C=C\C/C=C\CCCCC)OC(=O)CCC(CC(CC)CC)OC(=O)NCCN1CCCC1 (stereo not drawn) [Compound 106, 2-((6-ethyl-4-(((2-(pyrrolidin-1-yl)ethyl)carbamoyl)oxy)octanoyl)oxy)propane-1,3-diyl (9Z,9′Z,12Z,12′Z)-bis(octadeca-9,12-dienoate)] |  |  | Serum TTR % TSS ([4]; dose 0.03 mpk, 0.03 mg/kg): 82.47 % TSS and 88.7 % TSS
6.76 | 73 | 0.01 | 88 | 98 | CCCCC/C=C\C/C=C\CCCCCCCC(=O)OCC(COC(=O)CCCCCCC/C=C\C/C=C\CCCCC)OC(=O)CC[C@H](CCCCCC)OC(=O)NCCN1CCCC1 [Compound 89, 2-(((S)-4-(((2-(pyrrolidin-1-yl)ethyl)carbamoyl)oxy)decanoyl)oxy)propane-1,3-diyl (9Z,9′Z,12Z,12′Z)-bis(octadeca-9,12-dienoate)] | 48.65 |  | 
6.15 |  |  |  |  | CCCCC/C=C\C/C=C\CCCCCCCC(=O)OCC(COC(=O)CCCCCCC/C=C\C/C=C\CCCCC)OC(=O)CCC(CCCCCCCCCC)OC(=O)OCCCN1CCCC1 (stereo not drawn) [Compound 66, 2-((4-(((3-(pyrrolidin-1-yl)propoxy)carbonyl)oxy)tetradecanoyl)oxy)propane-1,3-diyl (9Z,9′Z,12Z,12′Z)-bis(octadeca-9,12-dienoate)] | 54.682 | 19.674 | Num Ave Size (nm) ([2]; Expt. 7): 65.07 nm; PDI ([2]; Expt. 7): 0.035; Z-Ave Size (nm) ([2]; Expt. 7): 79.79 nm; Encapsulation (%) ([3]; Expt. 7): 98%
